Experimental data as given in PMC8587000, “Pyridinone Derivatives as Interesting Formyl Peptide Receptor (FPR) Agonists for the Treatment of Rheumatoid Arthritis” (Molecules, 2021).

Assays:
[1] = biological target: T1, FPR1 (Homo sapiens, UniProt P21462); experiment: Ca2+ mobilization in FPR1-transfected HL60 cells; type: cell-based; settings: for Emax: HL-60, read-out: FPR1-HL60 Efficacy (converted)
T1 construct: expressed in transfected cells; host or cells: HL60 (human promyelocytic leukemia), stably transfected; gift from Dr. Marie-Josephe Rabiet
T1 sequence (P21462 1-350): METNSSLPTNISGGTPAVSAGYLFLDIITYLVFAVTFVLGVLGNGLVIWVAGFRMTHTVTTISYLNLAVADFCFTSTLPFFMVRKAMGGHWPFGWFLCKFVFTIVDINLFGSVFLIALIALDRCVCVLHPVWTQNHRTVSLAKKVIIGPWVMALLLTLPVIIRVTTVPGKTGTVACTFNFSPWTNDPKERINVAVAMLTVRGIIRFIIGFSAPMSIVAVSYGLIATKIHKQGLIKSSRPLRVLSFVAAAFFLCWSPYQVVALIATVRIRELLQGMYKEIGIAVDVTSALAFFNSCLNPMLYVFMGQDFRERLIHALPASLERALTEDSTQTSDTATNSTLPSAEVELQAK
Description: (§1) Human promyelocytic leukemia HL60 cells stably transfected with FPR1 (FPR1-HL60 cells) or FPR2 (FPR2-HL60 cells) (kind gift from Dr. Marie-Josephe Rabiet, Université Joseph Fourier, Grenoble, France) were cultured in RPMI 1640 medium supplemented with 10% heat-inactivated fetal calf serum, 10 mM HEPES, 100 μg/mL streptomycin, 100 U/mL penicillin, and G418 (1 mg/mL). G418 was removed in the last round of culture before assays were performed.

[2] = system: human neutrophils (hPMN); experiment: Ca2+ mobilization in human neutrophils (hPMN); type: cell-based; settings: Neutrophil; for Emax: read-out: hPMN Efficacy (converted)
Description: Blood was collected from healthy donors in accordance with a protocol approved by the Institutional Review Board at Montana State University. Neutrophils were purified from the blood using dextran sedimentation, followed by Histopaque 1077 gradient separation and hypotonic lysis of red blood cells. Isolated neutrophils were washed twice and resuspended in HBSS^-. Neutrophil preparations were routinely >95% pure, as determined by light microscopy, and >98% viable, as determined by trypan blue exclusion.
Changes in intracellular Ca^2+ were measured with a FlexStation II scanning fluorometer (Molecular Devices, Sunnyvale, CA, USA). The cells, suspended in Hank’s balanced salt solution without Ca^2+ and Mg^2+ but with 10 mM HEPES (HBSS^−), were loaded with 1.25 μg/mL Fluo-4 AM dye and incubated for 30 min in the dark at 37 °C. After dye loading, the cells were washed with HBSS^- containing 10 mM HEPES, resuspended in HBSS^+ containing Ca^2+, Mg^2+, and 10 mM HEPES (HBSS^+), and aliquoted into the wells of flat-bottom, half-area-well black microtiter plates (2 × 10^5 cells/well). For the evaluation of direct agonist activity, compounds of interest were added from a source plate containing dilutions of test compounds in HBSS^+, and changes in fluorescence were monitored (λex = 485 nm, λem = 538 nm) every 5 s for 240 s at room temperature after the automated addition of compounds. Maximum change in fluorescence during the first 3 min, expressed in arbitrary units over baseline, was used to determine a response. […] Curve fitting (5–6 points) and calculation of median effective inhibitory concentrations (IC50) were performed by nonlinear regression analysis of the dose–response curves generated using Prism 9 (GraphPad Software, Inc., San Diego, CA, USA).

[3] = biological target: T2, FPR2 (Homo sapiens, UniProt P25090); experiment: Ca2+ mobilization in FPR2-transfected HL60 cells; type: cell-based; settings: for Emax: HL-60, read-out: FPR2-HL60 Efficacy (converted); for selectivity index (SI) FPR1/FPR2: ratio of EC50 FPR1-HL60 / FPR2-HL60
T2 construct: expressed in transfected cells; host or cells: HL60 (human promyelocytic leukemia), stably transfected; gift from Dr. Marie-Josephe Rabiet
T2 sequence (P25090 1-351): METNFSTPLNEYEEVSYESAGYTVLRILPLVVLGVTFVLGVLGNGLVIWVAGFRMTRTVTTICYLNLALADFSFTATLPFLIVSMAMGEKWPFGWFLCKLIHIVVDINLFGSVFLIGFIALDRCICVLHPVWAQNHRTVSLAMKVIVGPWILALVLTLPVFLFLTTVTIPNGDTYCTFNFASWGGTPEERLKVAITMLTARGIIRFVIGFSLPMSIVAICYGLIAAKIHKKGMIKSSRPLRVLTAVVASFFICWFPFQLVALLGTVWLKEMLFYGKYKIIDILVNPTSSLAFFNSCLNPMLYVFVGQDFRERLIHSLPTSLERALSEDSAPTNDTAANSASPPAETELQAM
Description: as §1

SMILES | EC50 [1] [µM] | Emax [1] [%] | EC50 [2] [µM] | Emax [2] [%] | EC50 [3] [µM] | Emax [3] [%] | melting point | selectivity index (SI) FPR1/FPR2 [3]
Cc1c(C(=O)O)cc(C#N)c(=O)n1CC(=O)Nc1ccc(Br)cc1 [Compound 2, 1-{2-[(4-Bromophenyl)amino]-2-oxoethyl}-5-cyano-2-methyl-6-oxo-1,6-dihydropyridine-3-carboxylic acid] | 3.5 ± 0.9 | 100 | 4.3 ± 1.5 | 120 | 9.2 ± 1.9 | 100 | 180 to 182 °C (dec.) | –
CCCOC(=O)c1cc(C#N)c(=O)n(CC(=O)Nc2ccc(Br)cc2)c1C [Compound 4a, Propyl 1-{2-[(4-bromophenyl)amino]-2-oxoethyl}-5-cyano-2-methyl-6-oxo-1,6-dihydropyridine-3-carboxylate] | 16.3 ± 3.4 | 115 | 6.4 ± 1.7 | 115 | 3.2 ± 0.6 | 140 | 193 to 195 °C (dec.) | –
CCCCOC(=O)c1cc(C#N)c(=O)n(CC(=O)Nc2ccc(Br)cc2)c1C [Compound 4b, Butyl 1-{2-[(4-bromophenyl)amino]-2-oxoethyl}-5-cyano-2-methyl-6-oxo-1,6-dihydropyridine-3-carboxylate] | 29.7 ± 4.6 | 70 | 27.9 ± 3.2 | 110 | 18.3 ± 4.2 | 75 | 109 to 111 °C (dec.) | –
Cc1c(C(=O)OC(C)C)cc(C#N)c(=O)n1CC(=O)Nc1ccc(Br)cc1 [Compound 4c, Isopropyl 1-{2-[(4-bromophenyl)amino]-2-oxoethyl}-5-cyano-2-methyl-6-oxo-1,6-dihydropyridine-3-carboxylate] | 7.7 ± 1.7 | 180 | 10.2 ± 1.9 | 120 | 8.4 ± 1.7 | 85 | 223 to 224 °C | –
COc1cccc(COC(=O)c2cc(C#N)c(=O)n(CC(=O)Nc3ccc(Br)cc3)c2C)c1 [Compound 4d, 3-Methoxybenzyl 1-{2-[(4-bromophenyl)amino]-2-oxoethyl}-5-cyano-2-methyl-6-oxo-1,6-dihydropyridine-3-carboxylate] | 20.8 ± 3.7 | 85 | 12.7 ± 3.9 | 65 | 14.1 ± 3.8 | 100 | – | –
COc1cccc(CCOC(=O)c2cc(C#N)c(=O)n(CC(=O)Nc3ccc(Br)cc3)c2C)c1 [Compound 4e, 3-Methoxyphenethyl 1-{2-[(4-bromophenyl)amino]-2-oxoethyl}-5-cyano-2-methyl-6-oxo-1,6-dihydropyridine-3-carboxylate] | 24.1 ± 5.2 | 70 | 17.9 ± 4.2 | 65 | 17.3 ± 4.1 | 75 | – | –
Cc1c(C(N)=O)cc(C#N)c(=O)n1CC(=O)Nc1ccc(Br)cc1 [Compound 6, 1-{2-[(4-Bromophenyl)amino]-2-oxoethyl}-5-cyano-2-methyl-6-oxo-1,6-dihydropyridine-3-carboxamide] | 27.1 ± 4.2 | 60 | 29.1 ± 3.6 | 90 | 8.4 ± 0.6 | 125 | – | –
CNC(=O)c1cc(C#N)c(=O)n(CC(=O)Nc2ccc(Br)cc2)c1C [Compound 8a, 1-{2-[(4-Bromophenyl)amino]-2-oxoethyl}-5-cyano-N,2-dimethyl-6-oxo-1,6-dihydropyridine-3-carboxamide] | 2.2 ± 0.6 | 105 | 4.9 ± 1.2 | 105 | 1.3 ± 0.4 | 115 | > 300 °C (dec.) | –
CCNC(=O)c1cc(C#N)c(=O)n(CC(=O)Nc2ccc(Br)cc2)c1C [Compound 8b, 1-{2-[(4-Bromophenyl)amino]-2-oxoethyl}-5-cyano-N-ethyl-2-methyl-6-oxo-1,6-dihydropyridine-3-carboxamide] | 21.2 ± 1.2 | 145 | 11.4 ± 3.1 | 80 | 3.3 ± 0.2 | 120 | 290 °C (dec.) | 6
CCCNC(=O)c1cc(C#N)c(=O)n(CC(=O)Nc2ccc(Br)cc2)c1C [Compound 8c, 1-{2-[(4-bromophenyl)amino]-2-oxoethyl}-5-cyano-2-methyl-6-oxo-N-propyl-1,6-dihydropyridine-3-carboxamide] | 7 ± 0.7 | 120 | 7.2 ± 1.6 | 70 | 1.3 ± 0.1 | 135 | 274 to 276 °C (dec.) | –
CCCCNC(=O)c1cc(C#N)c(=O)n(CC(=O)Nc2ccc(Br)cc2)c1C [Compound 8d, 1-{2-[(4-Bromophenyl)amino]-2-oxoethyl}-N-butyl-5-cyano-2-methyl-6-oxo-1,6-dihydropyridine-3-carboxamide] | 9.1 ± 1.4 | 140 | 4 ± 0.9 | 70 | 1 ± 0.4 | 130 | 261 to 263 °C (dec.) | 9
Cc1c(C(=O)N(C)C)cc(C#N)c(=O)n1CC(=O)Nc1ccc(Br)cc1 [Compound 8e, 1-{2-[(4-Bromophenyl)amino]-2-oxoethyl}-5-cyano-N,N,2-trimethyl-6-oxo-1,6-dihydropyridine-3-carboxamide] | 18 ± 3.5 | 110 | 20.8 ± 4.8 | 110 | 2.4 ± 1.2 | 150 | 122 to 124 °C | 7.5
COc1ccc(C(=O)c2cc(C(N)=O)c(=O)n(CC(=O)Nc3ccc(Br)cc3)c2C)cc1 [Compound 10, 1-{2-[(4-bromophenyl)amino]-2-oxoethyl}-5-(4-methoxybenzoyl)-6-methyl-2-oxo-1,2-dihydropyridine-3-carboxamide] | 4.4 ± 0.5 | 105 | 7.5 ± 2.1 | 120 | 3.4 ± 0.7 | 130 | – | –
COc1ccc(C(=O)c2cc(C#N)c(=O)n(CC(=O)Nc3ccc(Br)cc3)c2C)cc1 [Compound 11, N-(4-bromophenyl)-2-[3-cyano-5-(4-methoxybenzoyl)-6-methyl-2-oxopyridin-1(2H)-yl]acetamide] | 5.2 ± 0.4 | 105 | 7.8 ± 2.2 | 120 | 1.9 ± 0.2 | 110 | – | –
COc1cccc(-c2cc(C#N)c(=O)n(CC(=O)Nc3cccc(O)c3)c2C)c1 [Compound 13b, 2-[3-Cyano-5-(3-methoxyphenyl)-6-methyl-2-oxopyridin-1(2H)-yl]-N-(3-hydroxyphenyl) acetamide] | – | – | – | – | – | – | 128 to 130 °C | –
COc1cccc(-c2cc(C#N)c(=O)n(CC(=O)Nc3ccc(O)cc3)c2C)c1 [Compound 13c, 2-[3-Cyano-5-(3-methoxyphenyl)-6-methyl-2-oxopyridin-1(2H)-yl]-N-(4-hydroxyphenyl) acetamide] | – | – | – | – | – | – | 127 to 129 °C | –
Cc1c(-c2cccc(O)c2)cc(C#N)c(=O)n1CC(=O)Nc1cccc(O)c1 [Compound 14b, 2-[3-Cyano-5-(3-hydroxyphenyl)-6-methyl-2-oxopyridin-1(2H)-yl]-N-(3-hydroxyphenyl) acetamide] | 40.1 ± 7.2 | 50 | – | – | 37.6 ± 5.6 | 150 | 187 to 189 °C (dec.) | –
Cc1c(-c2cccc(O)c2)cc(C#N)c(=O)n1CC(=O)Nc1ccc(O)cc1 [Compound 14c, 2-[3-Cyano-5-(3-hydroxyphenyl)-6-methyl-2-oxopyridin-1(2H)-yl]-N-(4-hydroxyphenyl) acetamide] | – | – | – | – | – | – | 232 to 234 °C (dec.) | –
